We go through 31 compounds from patent US8703805B2 (Exelixis Patent Company LLC, priority 2005, dated 2014).

Bounds are passed on as bounds.

The subject of the test is LXRα and/or LXRβ. In words: LXR/LXRE co-transfection assay (luciferase reporter, CV-1 cells). In kind it is cell-based, human. Particulars: IC50 or EC50 for LXR (LXRα and/or LXRβ, not distinguished), tested as described in Example 109, CV-1 cells. Summed up:
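Transient co-transfection of CV-1 cells with full-length human LXRα or LXRβ plus RXRα expression plasmids and an LXREx1-Tk-luciferase reporter; compounds (10 μM screen, ≤1% DMSO) incubated 20 h at 37 °C. Luminescence read after lysis; EC50/IC50 from 8-point half-log curves, efficacy relative to a high control or DMSO.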
(In general: In a reporter assay the amount or activity of a reporter protein is the signal.)
On to `CS(=O)(=O)c1cccc(-c2ccc(-c3cc(C(=O)NCC(F)(F)F)nn3-c3ncccc3C(F)(F)F)s2)c1` [Example 1236, 5-{5-[3-(methylsulfonyl)phenyl]-2-thienyl}-N-(2,2,2-trifluoroethyl)-1-[3-(trifluoromethyl)pyridin-2-yl]-1H-pyrazole-3-carboxamide], for which the EC50 fell in the range of 1000 to 10000 nM.
As to `COC(=O)c1cc(-c2ccccc2Cl)n(-c2ccc(-c3cccc(S(C)(=O)=O)c3)nc2)n1` [Example 1244, methyl 5-(2-chlorophenyl)-1-{6-[3-(methylsulfonyl)phenyl]pyridin-3-yl}-1H-pyrazole-3-carboxylate], the half-maximal effective concentration (EC50) lay in the range of 1000 to 10000 nM.
For `Cc1cc(-c2cccc(S(C)(=O)=O)c2)cnc1-n1nc(C(C)(C)O)c(Cl)c1-c1ccccc1Cl` [Example 145, 2-(4-chloro-5-(2-chlorophenyl)-1-(3-methyl-5-(3-(methylsulfonyl)phenyl)pyridin-2-yl)-1H-pyrazol-3-yl)propan-2-ol] the value was less than 1000 nM; for `Cc1cc(-c2cccc(S(C)(=O)=O)c2)ccc1-n1nc(C(C)(C)O)c(Cl)c1-c1c(Cl)cccc1Cl` [Example 1424, 2-(4-chloro-5-(2,6-dichlorophenyl)-1-(3-methyl-3′-(methylsulfonyl)biphenyl-4-yl)-1H-pyrazol-3-yl)propan-2-ol], less than 1000 nM.
`Cn1ccc2cc(-c3ccc(-c4cc(C(C)(C)O)nn4-c4ccccc4Cl)cc3)ccc21` [Example 1284, 2-{1-(2-chlorophenyl)-5-[4-(1-methyl-1H-indol-5-yl)phenyl]-1H-pyrazol-3-yl}propan-2-ol] showed a half-maximal effective concentration (EC50) of 1000 to 10000 nM.
As for `CC(C)(O)c1ccc(-c2ccc(-c3cc(C(F)(F)F)nn3-c3ccccc3Cl)s2)cc1` [Example 1241, 2-(4-{5-[1-(2-chlorophenyl)-3-(trifluoromethyl)-1H-pyrazol-5-yl]-2-thienyl}phenyl)propan-2-ol], the figure is 1000 to 10000 nM; as for `CC(C)(O)c1cc(-c2ccc(-c3cccc(S(C)(=O)=O)c3)s2)n(-c2ccccc2)n1` [Example 1262, 2-(5-{5-[3-(methylsulfonyl)phenyl]-2-thienyl}-1-phenyl-1H-pyrazol-3-yl)propan-2-ol], less than 1000 nM.
In the case of `CC(C)(O)c1nn(-c2ccc(-c3cccc(S(C)(=O)=O)c3)cc2Cl)c(-c2ccccc2C(F)(F)F)c1Cl` [Example 1421, 2-(4-chloro-1-(3-chloro-3′-(methylsulfonyl)biphenyl-4-yl)-5-(2-(trifluoromethyl)phenyl)-1H-pyrazol-3-yl)propan-2-ol], the EC50 was less than 1000 nM.
Compound `CN1CCN(CCn2nc(C(F)(F)F)cc2-c2ccc(-c3cccc(S(C)(=O)=O)c3)cc2)CC1` [Example 1223, 1-methyl-4-(2-{5-[3′-(methylsulfonyl)biphenyl-4-yl]-3-(trifluoromethyl)-1H-pyrazol-1-yl}ethyl)piperazine] showed an EC50 of 1000 to 10000 nM.
For `CC(C)(O)c1cccc(-n2nc(C(C)(C)O)cc2-c2ccc(-c3cccc(S(C)(=O)=O)c3)s2)c1` [Example 1226, 2-{3-[3-(1-hydroxy-1-methylethyl)-5-{5-[3-(methylsulfonyl)phenyl]-2-thienyl}-1H-pyrazol-1-yl]phenyl}propan-2-ol] the value was 1000 to 10000 nM; for `CC(C)(c1cc(-c2ccc(-c3cccc(S(C)(=O)=O)c3)s2)n(-c2ccccc2Cl)n1)N1CCOCC1` [Example 1159, 4-{1-[1-(2-chlorophenyl)-5-{5-[3-(methylsulfonyl)phenyl]-2-thienyl}-1H-pyrazol-3-yl]-1-methylethyl}morpholine], less than 1000 nM; for `C/C(=N\OCCN(C)C)c1cc(-c2ccc(-c3cccc(S(C)(=O)=O)c3)s2)n(-c2ccccc2Cl)n1` [Example 1337, (1E)-1-[1-(2-chlorophenyl)-5-{5-[3-(methylsulfonyl)phenyl]-2-thienyl}-1H-pyrazol-3-yl]ethanone O-[2-(dimethylamino)ethyl]oxime], less than 1000 nM.
In the case of `CC(C)(O)c1cc(-c2ccc(-c3cccc(S(C)(=O)=O)c3)cc2Cl)n(Cc2cccc(Cl)c2Cl)n1` [Example 1402, 2-(5-(3-chloro-3′-(methylsulfonyl)biphenyl-4-yl)-1-(2,3-dichlorobenzyl)-1H-pyrazol-3-yl)propan-2-ol], the EC50 is less than 1000 nM.
For `CC(C)(C#N)c1cc(-c2ccc(-c3cccc(S(C)(=O)=O)c3)s2)n(-c2ccccc2Cl)n1` [Example 1134, 2-[1-(2-chlorophenyl)-5-{5-[3-(methylsulfonyl)phenyl]-2-thienyl}-1H-pyrazol-3-yl]-2-methylpropanenitrile] the value was less than 1000 nM; for `CC(C)(O)c1cc(-c2ccc(-c3cccc(O)c3)cc2)n(-c2ccccc2Cl)n1` [Example 1285, 4′-[1-(2-chlorophenyl)-3-(1-hydroxy-1-methylethyl)-1H-pyrazol-5-yl]biphenyl-3-ol], 1000 to 10000 nM; for `CC(C)(O)c1cc(-c2ccc(-c3cccc(S(C)(=O)=O)c3)s2)n(-c2ccc(Cl)c(Cl)c2)n1` [Example 1324, 2-[1-(3,4-dichlorophenyl)-5-{5-[3-(methylsulfonyl)phenyl]-2-thienyl}-1H-pyrazol-3-yl]propan-2-ol], 1000 to 10000 nM.
Compound `CC(C)(O)c1cc(-c2cccc(F)c2F)n(-c2ccc(-c3cccc(S(C)(=O)=O)c3)cc2F)n1` [Example 121, 2-(5-(2,3-difluorophenyl)-1-(3-fluoro-3′-(methylsulfonyl)biphenyl-4-yl)-1H-pyrazol-3-yl)propan-2-ol] yielded an EC50 of 1000 to 10000 nM.
As for `CS(=O)(=O)c1cccc(-c2ccc(-c3cc(C(=S)NCC(F)(F)F)nn3-c3ccccc3Cl)s2)c1` [Example 1277, 1-(2-chlorophenyl)-5-{5-[3-(methylsulfonyl)phenyl]-2-thienyl}-N-(2,2,2-trifluoromethyl)-1H-pyrazole-3-carbothioamide], the figure is less than 1000 nM; as for `CC(C)(O)c1cc(-c2ccc(-c3cccc(NS(=O)(=O)C(F)(F)F)c3)cc2)n(-c2ccccc2Cl)n1` [Example 1310, N-{4′-[1-(2-chlorophenyl)-3-(1-hydroxy-1-methylethyl)-1H-pyrazol-5-yl]biphenyl-3-yl}-1,1,1-trifluoromethanesulfonamide], 1000 to 10000 nM.
For `CCC(O)(CC)c1cc(-c2ccc(-c3cccc(S(C)(=O)=O)c3)s2)n(-c2ccccc2Cl)n1` [Example 1174, 3-[1-(2-chlorophenyl)-5-{5-[3-(methylsulfonyl)phenyl]-2-thienyl}-1H-pyrazol-3-yl]pentan-3-ol] the value was less than 1000 nM; for `Cc1cc(-c2cccc(S(C)(=O)=O)c2)ccc1-c1cc(C(C)(C)O)nn1Cc1cccc(Cl)c1Cl` [Example 1384, 2-(1-(2,3-dichlorobenzyl)-5-(3-methyl-3′-(methylsulfonyl)biphenyl-4-yl)-1H-pyrazol-3-yl)propan-2-ol], less than 1000 nM.
For `CC(C)(O)c1nn(-c2ccccc2Cl)c(-c2ccc(-c3cccc(S(C)(=O)=O)c3)cn2)c1Cl` [Example 128, 2-(4-chloro-1-(2-chlorophenyl)-5-(5-(3-(methylsulfonyl)phenyl)pyridin-2-yl)-1H-pyrazol-3-yl)propan-2-ol] the value was 1000 to 10000 nM; for `CCN(CC)CCN(CC)C(=O)c1cc(-c2ccc(-c3cccc(S(C)(=O)=O)c3)s2)n(-c2ccccc2Cl)n1` [Example 587, 1-(2-chlorophenyl)-N-[2-(diethylamino)ethyl]-N-ethyl-5-{5-[3-(methylsulfonyl)phenyl]-2-thienyl}-1H-pyrazole-3-carboxamide], less than 1000 nM.
`CN(Cc1ccsc1)Cc1cc(-c2ccc(-c3cccc(S(C)(=O)=O)c3)s2)n(-c2ccccc2Cl)n1` [Example 544, 1-[1-(2-chlorophenyl)-5-{5-[3-(methylsulfonyl)phenyl]-2-thienyl}-1H-pyrazol-3-yl]-N-methyl-N-(3-thienylmethyl)methanamine]: the half-maximal effective concentration (EC50) was 1000 to 10000 nM.
As for `Cc1cc(-c2cccc(S(C)(=O)=O)c2)ccc1-n1nc(C(C)(C)O)cc1-c1ccccc1Cl` [Example 113, 2-(5-(2-chlorophenyl)-1-(3-methyl-3′-(methylsulfonyl)biphenyl-4-)-1H-pyrazol-3-yl)propan-2-ol], the figure is less than 1000 nM; as for `CC(C)(O)c1cc(-c2ccc(-c3cccc(S(C)(=O)=O)c3)s2)n(-c2c(Cl)cccc2Cl)n1` [Example 1239, 2-[1-(2,6-dichlorophenyl)-5-{5-[3-(methylsulfonyl)phenyl]-2-thienyl}-1H-pyrazol-3-yl]propan-2-ol], less than 1000 nM.
As for `CC(O)(c1cc(-c2ccc(-c3cccc(S(C)(=O)=O)c3)s2)n(-c2ccccc2Cl)n1)C(F)(F)F` (stereo not shown) [Example 1181, 2-[1-(2-chlorophenyl)-5-{5-[3-(methylsulfonyl)phenyl]-2-thienyl}-1H-pyrazol-3-yl]-1,1,1-trifluoropropan-2-ol], the figure is less than 1000 nM.
As for `CC(C)(O)c1cc(-c2ccc(-c3cccc(S(C)(=O)=O)c3)s2)n(-c2cc(Cl)ccc2Oc2ccccc2)n1` [Example 1212, 2-(1-[5-chloro-2-(phenyloxy)phenyl]-5-{5-[3-(methylsulfonyl)phenyl]-2-thienyl}-1H-pyrazol-3-yl)propan-2-ol], the figure is less than 1000 nM; as for `CN(C)CCN(C)C(=O)c1cc(-c2ccc(-c3cccc(S(C)(=O)=O)c3)s2)n(-c2ccccc2Cl)n1` [Example 1144, 1-(2-chlorophenyl)-N-[2-(dimethylamino)ethyl]-N-methyl-5-{5-[3-(methylsulfonyl)phenyl]-2-thienyl}-1H-pyrazole-3-carboxamide], 1000 to 10000 nM; as for `Cc1ccc(-n2nc(C(F)(F)F)cc2-c2ccc(-c3cccc(S(C)(=O)=O)c3)s2)c(Cl)c1O` [Example 1251, 2-chloro-6-methyl-3-[5-{5-[3-(methylsulfonyl)phenyl]-2-thienyl}-3-(trifluoromethyl)-1H-pyrazol-1-yl]phenol], 1000 to 10000 nM.
For the compound `Cc1ccc(C)c(-n2nc(C(C)(C)O)cc2-c2ccc(-c3cccc(S(C)(=O)=O)c3)s2)c1` [Example 1314, 2-[1-(2,5-dimethylphenyl)-5-{5-[3-(methylsulfonyl)phenyl]-2-thienyl}-1H-pyrazol-3-yl]propan-2-ol], the concentration giving a half-maximal response (EC50) is less than 1000 nM.

By EC50 is commonly meant the concentration needed to bring the measured effect to its halfway point. A high value points to lower potency in that assay.
